Results published in paper PMC8136953 (Veterinary Medicine and Science, 2020).
Read-outs that look alike come from different tables or passages of the source.

Key:
[1] = cited from earlier work
[2] = parameters: method as in Park et al. (2006); conditions: 0‰, SO, 20 mg/kg fish, 280 g, 24 °C; ref Park et al. (2006); cited from earlier work
[3] = Minimum plasma concentrations of FLO during multiple oral administrations; assay type: in vivo; conditions: European seabass (Dicentrarchus labrax), 10 mg/kg/day, multiple oral 10 mg/kg per day for seven consecutive days, 24°C, read-out: Minimum plasma concentrations at the 24 hr sampling intervals
Experimental: The extraction step was repeated twice.
The flow rate was 1.0 ml/min.
Results are presented as means ± SD (standard deviation of the mean). […] The SPSS version 25.0 (International Business Machines Corporation, Armonk, NY, USA) was used for the statistical analysis.

[4] = cited from earlier work; remark: listed apart in the source
[5] = 0‰, 25 °C, cited from earlier work
[6] = parameters: method as in Kosoff et al. (2009); conditions: 0‰, MO, 10 × 10d mg/kg fish, 49–52 g, 20–25 °C; ref Kosoff et al. (2009); cited from earlier work
[7] = 28‰, MO, 10 × 10d mg/kg fish, 150 g, 27 °C; ref Di Salvo et al. (2013); cited from earlier work
[8] = parameters: method as in Xie et al. (2013); conditions: 0‰, SO‐FA, 20 mg/kg fish, 71 g, 25 °C; ref Xie et al. (2013); cited from earlier work
[9] = 0‰, cited from earlier work
[10] = parameters: method as in Wrzesinski et al. (2006); conditions: 0‰, MO, 10 × 12d mg/kg fish, 916 g, 18–20 °C; ref Wrzesinski et al. (2006); cited from earlier work
[11] = parameters: method as in Chang et al. (2019); conditions: 31‰, SO‐FA, 30 mg/kg fish, 615 g, ref Chang et al. (2019), cited from earlier work
[12] = parameters: method as in Kverme et al. (2019); conditions: 34‰, SO‐FA, 10 mg/kg fish, 114 g, 12 °C; ref Kverme et al. (2019); cited from earlier work
[13] = parameters: method as in Kosoff et al. (2009); conditions: 26–30‰, MO, 10 × 10d mg/kg fish, 384–426 g, 20–25 °C; ref Kosoff et al. (2009); cited from earlier work
[14] = 0‰, cited from earlier work; for WT: MO, 13 °C
[15] = 0‰, MO, 10 × 10d mg/kg fish, 444–474 g, 25–30 °C, ref Kosoff et al. (2009)
[16] = 0‰, MO, 15 × 10d mg/kg fish, 100–500 g, 25 °C, ref Bowser et al. (2009)
[17] = 0‰, SO‐FA, 15 mg/kg fish, 500–700 g, 24 °C, ref Rairat et al. (2019)
[18] = 0‰, SO‐FA, 15 mg/kg fish, 500–700 g, 28 °C, ref Rairat et al. (2019)
[19] = 0‰, SO‐FA, 15 mg/kg fish, 500–700 g, 28 °C, ref Rairat et al. (2020)
[20] = 0‰, SO‐FA, 15 mg/kg fish, 500–700 g, 32 °C, ref Rairat et al. (2019)
[21] = 2‰, SO‐FA, 15 mg/kg fish, 500–700 g, 28 °C, ref Rairat et al. (2020)
[22] = 4‰, SO‐FA, 15 mg/kg fish, 500–700 g, 28 °C, ref Rairat et al. (2020)
[23] = 8‰, SO‐FA, 15 mg/kg fish, 500–700 g, 28 °C, ref Rairat et al. (2020)
[24] = 15‰, SO‐FA, 15 mg/kg fish, 500–700 g, 28 °C, ref Rairat et al. (2020)
[25] = 30‰, SO‐FA, 10 mg/kg fish, 194 g, 11 °C, ref Martinsen et al. (1993)
[26] = MO‐FA, 10 × 10d mg/kg fish, 612 g, ref Gaunt et al. (2013)
[27] = SO‐FA, 10 mg/kg fish, ref Gaunt et al. (2012)
[28] = MO‐FA, 10 × 5d mg/kg fish, 330 g, 10 °C, ref Yang et al. (2020)
[29] = MO‐FA, 10 × 5d mg/kg fish, 330 g, 25 °C, ref Yang et al. (2020)
[30] = SO‐FA, 10 mg/kg fish, 260 g, 10 °C, ref Yang et al. (2019)
[31] = SO‐FA, 10 mg/kg fish, 260 g, 25 °C, ref Yang et al. (2019)
[32] = SO‐FA, 40 mg/kg fish, 260 g, 25 °C, ref Zhao et al. (2011)
[33] = SO, 10 mg/kg fish, 140 g, 14–15 °C, ref Pourmolaie et al. (2015)

CS(=O)(=O)c1ccc([C@@H](O)[C@@H](CF)NC(=O)C(Cl)Cl)cc1 [FLO, florfenicol]
C max [1, 15]: 6500 to 6700 ng/mL
WT [1, 15]: 98 to 146 h
C max [1, 16]: 7100 to 15200 ng/mL
WT [1, 16]: >288 h
t 1/2b [1, 16]: 1.2 to 2.2 h
C max [1, 17]: 23100 ng/mL
T max [1, 17]: 1.4 h
t 1/2b [1, 17]: 12.4 h
C max [1, 18]: 16700 ng/mL
T max [1, 18]: 1.2 h
t 1/2b [1, 18]: 9.5 h
C max [1, 19]: 24000 ng/mL
T max [1, 19]: 0.8 h
t 1/2b [1, 19]: 11.3 h
C max [1, 20]: 16700 ng/mL
T max [1, 20]: 0.8 h
t 1/2b [1, 20]: 7.3 h
t 1/2b ([1]; 2‰, SO‐FA, 15 mg/kg fish, 500–700 g, 28 °C, ref Rairat et al. (2020), 15 mg/kg): 10.7 h
C max [1, 21]: 21600 ng/mL
T max [1, 21]: 0.9 h
C max [1, 22]: 21800 ng/mL
T max [1, 22]: 0.9 h
t 1/2b [1, 22]: 10.6 h
C max [1, 23]: 24400 ng/mL
T max [1, 23]: 0.9 h
t 1/2b [1, 23]: 10.2 h
t 1/2b ([1]; 15‰, SO‐FA, 15 mg/kg fish, 500–700 g, 28 °C, ref Rairat et al. (2020), 15 mg/kg): 8.9 h
C max [1, 24]: 22700 ng/mL
T max [1, 24]: 1.0 h
C max [2]: 9600 ng/mL
T max [2]: 8 h
concentration at 24 hr [3]: 220 to 550 ng/mL
C max [4, 25]: 4000 ng/mL
T max [4, 25]: 10.3 h
C max ([4]; 35‰, MO, 10 × 10d mg/kg fish, 497 g, 10 °C, ref Horsberg et al. (1996)): 8560 ng/mL
C max ([4]; 35‰, SO‐FA, 10 mg/kg fish, 460 g, 10 °C, ref Horsberg et al. (1996)): 9100 ng/mL
C max [5, 26]: 9700 ng/mL
T max [5, 26]: 8 h
C max [5, 27]: 7600 ng/mL
T max [5, 27]: 9 h
t 1/2b [5, 27]: 9.1 h
C max [6]: 9200 to 15100 ng/mL
WT [6]: 232 to 302 h
WT [7]: 95 h
C max [8]: 8400 ng/mL
T max [8]: 5 h
t 1/2b [8]: 13.5 h
C max [9, 28]: 4000 ng/mL
t 1/2b [9, 28]: 19.9 h
C max [9, 29]: 1700 ng/mL
t 1/2b [9, 29]: 12.9 h
C max [9, 30]: 2400 ng/mL
T max [9, 30]: 2.8 h
t 1/2b [9, 30]: 22.9 h
C max [9, 31]: 3500 ng/mL
T max [9, 31]: 3.7 h
t 1/2b [9, 31]: 9.6 h
C max [9, 32]: 29300 ng/mL
T max [9, 32]: 1.6 h
t 1/2b [9, 32]: 2.2 h
WT [10]: 96 h
C max ([11]; 15 °C): 9100 ng/mL
t 1/2b ([11]; 15 °C): 14.3 h
T max ([11]; 15–20 °C): 12 h
C max ([11]; 20 °C): 12200 ng/mL
t 1/2b ([11]; 20 °C): 9.7 h
C max [12]: 3600 ng/mL
T max [12]: 21.2 h
t 1/2b [12]: 21.2 h
C max [13]: 1800 to 3500 ng/mL
WT [13]: 17 to 62 h
WT ([14]; 10 × 10d mg/kg fish, 220 g, ref Di Salvo et al. (2013)): 108 h
WT ([14]; 15–20 × 10d mg/kg fish, 126–617 g, ref Meinertz et al. (2014)): 360 h
C max [14, 33]: 6100 ng/mL
T max [14, 33]: 9 h
